Experimental data: US20210346329A1, “TCA CYCLE INTERMEDIATES AND METHODS OF USE THEREOF” (IMBRIA PHARMACEUTICALS, INC., priority 2018, published 2021)

Assay: Percentage recovery of radioactive dose (expired CO2, urine, feces, cage rinse and wipe)
Conditions: IV 10 mg/kg, Subject 1006
Method: The plasma-time course, routes and rates of excretion, and tissue distribution of radioactivity following a single oral dose of ^14C-labeled citrate or single oral dose of ^14C-labeled succinate were analyzed in rats.
Formulations were prepared on the day prior to dosing.
CD® rats were obtained from Charles River Laboratories. Animals were 9-11 weeks in age at beginning of study.
Animals given intravenous ^14C-succinate were not kept in a fasting state. ^14C-succinate was administered by tail vein injection.
Following oral dosing, the tube and dose site were wiped with gauze, which was collected for subsequent radioanalysis. Following IV dosing, the needle and dose site were wiped with gauze, which was collected for subsequent radioanalysis. The dose site wipe total radioactivity was subtracted from the total dose administered, to determine dose loss, according to SOP ADME.
Urine and feces were collected at 0-24 hours post-dose and stored on wet ice. Expired CO2 was collected at 0-8 hours and 8-24 hours post-dose by drawing air through traps containing 2 N NaOH according to MPI Research SOP. Samples were stored at ambient temperature and weighed. Aliquots were submitted for radioanalysis.
At 24 hours post-dose, cages were rinsed with a 1% trisodium phosphate (TSP) solution and wiped with gauze pads. The final cage rinse samples and cage wipe samples were collected into separate appropriate containers, and the weight of each cage rinse and cage wipe were recorded.
Samples were analyzed for radioactivity by liquid scintillation counting (LSC) for at least 5 minutes or 100,000 cumulative counts. Samples were analyzed in triplicate.

- Percentage recovery of radioactive dose (Cage rinse, 0-24 hr): 0.1 % recovery
- Percentage recovery of radioactive dose (Cage wipe, 24 hr): 0.0 % recovery
- Percentage recovery of radioactive dose (Expired trap 1, 0-8 hr (line r8)): 54.8 % recovery
- Percentage recovery of radioactive dose (Expired trap 1, 0-8 hr (line r9)): 4.6 % recovery
- Percentage recovery of radioactive dose (Expired trap 1, 0-8 hr (line r10)): 0.4 % recovery
- Percentage recovery of radioactive dose (Expired trap 1, 0-8 hr (line r12)): 1.3 % recovery
- Percentage recovery of radioactive dose (Expired trap 1, 0-8 hr (line r13)): 0.7 % recovery
- Percentage recovery of radioactive dose (Expired trap 1, 0-8 hr (line r14)): 0.3 % recovery
- Percentage recovery of radioactive dose (Feces, 0-24 hr): 0.2 % recovery
- Percentage recovery of radioactive dose (Subtotal of expired traps (line r11)): 59.8 % recovery
- Percentage recovery of radioactive dose (Subtotal of expired traps (line r15)): 2.3 % recovery
- Percentage recovery of radioactive dose (Total): 65.265 % recovery
- Percentage recovery of radioactive dose (Urine, 0-24 hr): 2.9 % recovery
SMILES: O=C(O)CCC(=O)O [^14C-succinate]
